The values that follow come from PubChem BioAssay (NCI).

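Growth conditions: 96-well plates. Treatment: test compound, 48 hours, 5 concentrations. Analysis: linear interpolation between bracketing concentrations; unreached endpoints set to highest concentration. GI50: concentration for 50% inhibition of growth. TGI marks complete inhibition of growth.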 Bounds are passed on as bounds.

Holding throughout (assay): DTP human tumour cell line panel, 48 h
For assay [1], the system named is ACHN renal.
Assay [2] concerns HCC-2998 colon.
Assay [3] concerns HCT-15 colon.
Assay [4] has as its system HT29 colon.
Assay [5] concerns IGROV1 ovarian.
Assay [6] deals with MDA-N.
The subject of assay [7] is NCI-H226 lung.
For assay [8], the system named is SF-539 CNS.
For assay [9], the system named is UACC-62 melanoma.

As to `C[C@@H]1O[C@@H]2OCC[C@@H]2C2=C1C(=O)c1ccccc1C2=O`, the TGI in [1] is 28.6 µM; in [2], 35.4 µM; in assay [3], 44.5 µM; in [4], greater than 100 µM; in assay [5] it was 10.8 µM; in assay [6], 3.35 µM. For the same molecule, the TGI in [7] is 61.5 µM; in [8], 22.3 µM; in assay [9], 17.4 µM.

As for `CC(C)Nc1n[nH]c(=O)n1C(C)C`, the TGI in assay [1], in assay [3], in [4], in assay [5], in [6] and in [7] was greater than 100 µM each time. Besides, the TGI in assay [8] and in assay [9] was greater than 100 µM throughout.

For `COc1ccc(Oc2nc3cc(C(F)(F)F)ccc3nc2C(C)C)cc1`, the TGI is 90.4 µM in [1]; 41.5 µM in assay [2]; 59.4 µM in assay [3]; 44.6 µM in [4]; 82.7 µM in assay [5]; greater than 100 µM in assay [6]. In addition, the TGI in assay [7] was 49.6 µM; in assay [8] it was greater than 100 µM; in assay [9] it was greater than 100 µM.

In the case of `CC1(C)C2CCC1(C)C(NC(=O)CCN1CCOCC1)C2` (stereo not given), the TGI in [1], in assay [2], in [4], in assay [5], in assay [6] and in assay [7] was greater than 100 µM each time. The TGI in assay [8] and in assay [9] was greater than 100 µM each time.

For `c1csc(-c2cc(-c3ccsc3)c(-c3cccs3)s2)c1`, the TGI in assay [1], in assay [2], in assay [3], in assay [4], in assay [6] and in assay [7] was greater than 100 µM each time. Also, the TGI in [8] and in assay [9] was greater than 100 µM in each case.

Consider `O=c1cc2oc3ccc4ccccc4c3cc-2c(=O)[nH]1`, for which the TGI in [1] stood at 32 µM; in [2], 31.8 µM; in assay [3], 22.9 µM; in assay [4], 32.2 µM; in assay [5], 27.4 µM; in [6] it was 23.8 µM. Moreover, the TGI in assay [8] came out at 25 µM; in assay [9] it was 32.5 µM.

As to `C1CSCCSS[C@@H]2CCCCC2SC1` (stereo not given in full), the concentration for total growth inhibition (TGI) in assay [2], in assay [3], in assay [4], in assay [5], in [6] and in [8] was greater than 100 µM throughout. For the same molecule, the TGI in assay [9] was greater than 100 µM.

As for `O=C(CN1CCOCC1)NC1=Nc2ncccc2C(=O)NN1`, the TGI in assay [1], in assay [3], in assay [4], in assay [5], in assay [6] and in assay [7] was greater than 10 µM in each case. For the same molecule, the TGI in assay [8] and in assay [9] was greater than 10 µM each time.

Consider `O=C1C=CC(=O)c2c(O)c(Nc3ccc(OC(F)(F)F)cc3)c(Cl)c(O)c21`, for which the TGI stood at 2.76 µM in [1]; 1.27 µM in assay [2]; 1.44 µM in assay [3]; 1.28 µM in assay [4]; 5.2 µM in assay [6]; 3.44 µM in [7]. The figures for the TGI in assay [8] and in assay [9] were 3.36 µM and 2.29 µM, respectively.

Regarding `COc1ccc(-n2c(C)nc3ccc(N=Cc4ccccc4)cc3c2=O)cc1`, the TGI in [1], in assay [2], in assay [3], in [4], in assay [5] and in [6] was greater than 100 µM each time. Besides, the TGI in [7] and in assay [9] was greater than 100 µM throughout.

For the molecule `O=C(Nc1ccccc1)N1CC(CN2CCN(c3ccccc3)CC2)OC1=O` (stereo not given), the TGI in assay [1], in assay [2], in [3], in assay [4], in assay [5] and in assay [6] was greater than 100 µM in each case. Moreover, the TGI in assay [7] and in assay [9] was greater than 100 µM throughout.

Take `CN(C)c1ncc(-c2c[nH]c3ccccc23)nc1-c1c[nH]c2ccccc12`: the TGI in assay [1] turned out to be 6.88 µM; in assay [2] it was 4.1 µM; in assay [3] it was 16.4 µM; in assay [4] it was 4.93 µM; in assay [5], 13.5 µM; in [6] it was 4.54 µM. The TGI in [8] was determined as 25.3 µM; in assay [9], 3.89 µM.

As for `Cn1c2nc(=Nc3ccc(Cl)cc3)n3ccc4ccccc4c3c2c(=O)n1-c1ccccc1`, the TGI in assay [1], in [2], in [3], in assay [4], in assay [5] and in assay [6] was greater than 100 µM each time. Moreover, the TGI in assay [7] and in assay [9] was greater than 100 µM throughout.

Consider `COC(=O)C1=C(C(=O)OC)C2(/N=C(\Nc3ccccc3)c3ccccc3)N(c3ccc(OC)cc3)CC(c3ccccc3)N2O1` (stereo not given), for which the TGI in assay [1], in [3], in assay [4], in assay [5], in [6] and in [8] was greater than 100 µM each time. The same molecule registered a TGI in [9] greater than 100 µM.

As to `Cc1ccc2c(c1)C(=O)C1(C2)Cc2ccc(C)cc2C1=O`, the TGI in assay [1], in assay [2], in assay [3], in [4], in assay [5] and in [6] was greater than 100 µM in each case. In [8], this molecule showed a TGI greater than 100 µM.

For the molecule `COc1cccc2c1[C@H](OC)[C@]13O[C@@]1(C2=O)[C@H](O)[C@H](C)[C@@](O)(C(=O)[C@@H]1O[C@H]1C)[C@@H]3O`, the TGI came out at 0.7 µM in [1]; 2.07 µM in assay [3]; 1.11 µM in assay [4]; 0.576 µM in [5]; 0.768 µM in assay [6]; 1.2 µM in assay [7]. The TGI in [8] is 0.975 µM; in assay [9], 0.877 µM. The GI50 in [4] was 0.251 µM.

Take `O=C1CC(CC(O)C(O)CO)CC(=O)N1` (stereo not given): the TGI in [1], in [2], in assay [3], in assay [4], in assay [5] and in assay [6] was greater than 100 µM each time. Besides, the TGI in [7] and in assay [8] was greater than 100 µM in each case.

Turning to `O=C(C1=CCC2(CC1)OCCO2)N(Cc1ccccc1)c1ccccc1I`, the TGI in [1] was 43.2 µM; in [2], 32.8 µM; in assay [3], 57.2 µM; in assay [4] it was 36 µM; in assay [6], 96.4 µM; in [7] it was 34.8 µM. In assay [9], this molecule registered a TGI of 31.1 µM.

In the case of `CN(C)CCCNC(=O)c1cc(NC(=O)CCCn2c3ccccc3c3ccccc32)cn1C`, the TGI in assay [1] was greater than 100 µM; in assay [3], greater than 100 µM; in assay [4], greater than 100 µM; in assay [5], 33.9 µM; in assay [6] it was greater than 100 µM; in assay [7] it was greater than 100 µM. Also, the TGI in [8] and in assay [9] was greater than 100 µM each time.

Turning to `CCOC(=O)c1c2ccccc2n2c(=O)n(C)nnc12`, the TGI in [1], in assay [2], in assay [3], in [5], in [6] and in assay [7] was greater than 100 µM in each case. In addition, the TGI in [8] and in assay [9] was greater than 100 µM in each case.

For the molecule `COC(=O)C1=C(O)C(C(=O)OC)[C@@]2(O)[C@@H](C(=O)OC)C(c3ccc(OC(=O)/C(=C/c4ccccc4)c4ccccc4)cc3)C[C@@H]1[C@@H]2C(=O)OC` (stereo not given in full), the TGI in assay [1] is greater than 100 µM; in assay [3] it was greater than 100 µM; in assay [4], greater than 100 µM; in [5] it was greater than 100 µM; in assay [6], 87.7 µM; in assay [7], 42.6 µM. Also, the TGI turned out to be 8.44 µM in assay [8] and 17.2 µM in [9].

Take `Cc1nnc2nc(-c3ccc(Cl)cc3Cl)cc(-c3ccc(Cl)cc3)n12`: the TGI in assay [1] was greater than 100 µM; in [3] it was greater than 100 µM; in assay [4], 42.3 µM; in assay [6], greater than 100 µM; in [7], greater than 100 µM; in [8], greater than 100 µM. The molecule further returned a TGI in assay [9] greater than 100 µM.

As to `S=c1scc(-c2ccc(Cl)cc2)n1OC1CCCC1`, the TGI in [1] is 90.4 µM; in assay [2], 71.2 µM; in assay [3], greater than 100 µM; in [4] it was greater than 100 µM; in assay [5] it was greater than 100 µM; in assay [6], greater than 100 µM. In addition, the TGI is 35.5 µM in [8] and greater than 100 µM in assay [9].

For the molecule `Nc1nonc1-c1noc(-c2nonc2N)[n+]1[O-]`, the TGI in [1] is greater than 100 µM; in assay [2], greater than 100 µM; in assay [3], 49.1 µM; in assay [4], 33.6 µM; in assay [5], greater than 100 µM; in assay [6], greater than 100 µM. For the same molecule, the TGI in assay [7] and in assay [9] was greater than 100 µM throughout.
